Experiments:
Format in all cases: physicochemical
[1] = UV spectrum measurement in CHCl3 (λmax, molar extinction coefficient); conditions: for λmax exp: 10^−4 M in CHCl3; for ε (molar extinction coefficient at the λmax): 10^−4 M in CHCl3, 1 cm cuvette
Experimental: The products are diluted in CHCl3 so as to obtain a solution at 10^−4M. The UV spectra are measured using a Uvikon 931 UV-vis spectrophotometer, Serlabo Technologies, Entraigues sur la Sorgue, France. This UV spectrum makes it possible to determine the molar extinction coefficient (mol^−1 L cm^−1) at the λmax by virtue of the Beer-Lambert law: c=A/l×C;
A=value of the absorbance at the λmax; l=length of the cuvette in cm (l=1);
C=concentration of the solution=1×10^−4 mol/l. The theoretical λmax was determined for certain products by DFT calculation.

[2] = SPF measurement, Protocol I (Rennes): simplified O/W emulsion, UV spectrum 200-400 nm; conditions: for λc p.I: critical wavelength; for λc p.I / Colipa UVA-PF p.I, at 10% / SPF p.I, at 10%: protocol I; for Colipa UVA-PF p.I, at 10%: product at 10%; for SPF p.I, at 10%: product at 10% in simplified O/W emulsion; for UVA/UVB: ratio of area under the curve 315-400 nm to 280-315 nm
Experimental: The SPF measurement is carried out according to the following protocol described in Le Dévéhat F., Malargé A., Couteau C., Coiffard L., Legouin B. “Evaluation of a new UV-filter screening method”, 4th symposium of the AFERP “Biodiversity, chimie des substances naturelles et medicaments” [“Biodiversity, chemistry of natural substances and medicaments”] and 3rd Franco-Pakistani symposium, Besançon (France), Jul. 16-17-18, 2010. A solution of each product dissolved in dimethyl sulfoxide is incorporated at 10% into a simplified emulsion of oil-in-water (O/W) type consisting of liquid paraffin, water and SDS at 10%, the whole mixture taken up in absolute ethanol. The UV spectrum of each solution is recorded between 200 nm and 400 nm in a 10 mm quartz cell on a Uvikon 931 UV-vis spectrophotometer and measured in comparison with a control 10% emulsion solution.
(§1) The SPF and UVA-PF values are, for the two protocols, calculated from the following equations: […]
(§2) where Eλ is the erythemogenic effect of the radiation at the wavelength λ; Sλ is the spectral solar irradiance at the wavelength λ and Tλ is the spectral transmittance of the product at the wavelength λ, λc is the critical wavelength which corresponds to the wavelength at which 90% of the area under the curve (AUC) is integrated between 290 and 400 nm. The UVA/UVB ratio corresponds more specifically to the ratio of the area under the curve between 315 and 400 nm to the area under the curve between 280 and 315 nm.

[3] = SPF measurement, Protocol II (Nantes): O/W emulsion on PMMA plate, transmission with integrating sphere; conditions: for λc (p.II): critical wavelength; for SPF (p.II, at 1%): product at 1% in O/W emulsion, PMMA plate, 290-400 nm; for Colipa UVA-PF (p.II, at 1%): product at 1%, 320-400 nm
Experimental: The SPF measurement is carried out according to the protocol described in Lohézic-Le Dévéhat F., Legouin B., Couteau C., Boustie J., Coiffard L. “Lichenic extracts and metabolites as UV filters” Journal of Photochemistry and Photobiology B: Biology 120 (2013) 17-28:
An emulsion having the following formulation is used: […]
The two phases are prepared separately. The hydrophilic phase is then added, with stirring, to the lipophilic phase. The products are finally incorporated at 1% into this O/W emulsion. 30 mg of the whole mixture are distributed over the entire surface area (25 cm^2) of a PMMA plate using a finger store. After spreading, 15 mg remain on the finger store. Three plates are prepared per product and nine measurements are carried out. The transmission measurements between 290 and 400 nm for the SPF and between 320 and 400 nm for the UVA-PF are carried out using a spectrophotometer equipped with an integrating sphere (UV Transmittance analyzer UV1000S, Labsphere, North Sutton, US).
as §1, §2

Row | λmax exp [1] [nm] | ε (molar extinction coefficient at the λmax) [1] [L/mol/cm] | Molecule | λc p.I [2] [nm] | Colipa UVA-PF p.I, at 10% [2] | SPF p.I, at 10% [2] | UVA/UVB [2] | λc (p.II) [3] [nm] | SPF (p.II, at 1%) [3] | Colipa UVA-PF (p.II, at 1%) [3] | Colipa UVA-PF p.I, at 10% ([2]; listed as oxybenzone)
1 | 316 | 20575 | CC(C)(C)OC(=O)N1CCC(=O)C=C1c1ccc(Oc2ccccc2)cc1 [Compound 12, tert-butyl 4-oxo-6-(4-phenoxyphenyl)-3,4-dihydropyridine-1(2H)-carboxylate] | 340 | 1.98 ± 0.05 | 5.31 ± 0.45 | 0.71 ± 0.01 |  |  |  | 
2 | 326 | 10924 | O=C1C=C(c2ccc(F)cc2)NCC1 [Compound 2, 6-(4-fluorophenyl)-2,3-dihydropyridin-4(1H)-one] | 361 | 5.85 ± 0.16 | 4.30 ± 0.12 | 3.08 ± 0.00 | 383 | 1.81 ± 0.11 | 1.95 ± 0.12 | 
3 | 328 | 8131 | O=C1C=C(c2ccc(Cl)cc2)NCC1 [Compound 1, 6-(4-chlorophenyl)-2,3-dihydropyridin-4(1H)-one] | 366 | 3.97 ± 0.15 | 2.27 ± 0.06 | 4.78 ± 0.57 |  |  |  | 
4 | 306 | 16596 | CCOC(=O)/C=C/C1=C(c2ccccc2)NCCC1=O [Compound 8, (E)-ethyl 3-(4-oxo-2-phenyl-1,4,5,6-tetrahydropyridin-3-yl)acrylate] | 378 | 5.38 ± 0.16 | 6.73 ± 0.27 | 2.22 ± 0.01 |  |  |  | 
5 | 303 | 12361 | CCCC1=CC(=O)CCN1 [Compound 5, 6-propyl-2,3-dihydropyridin-4(1H)-one] | 328 | 1.66 ± 0.003 | 12.17 ± 0.09 | 0.36 ± 0.00 | 335 | 11.18 ± 1.03 | 2.58 ± 0.07 | 
6 | 355 | 26286 | CN(C)c1ccc(C2=CC(=O)CCN2)cc1 [Compound 4, 6-(4-(dimethylamino)phenyl)-2,3-dihydropyridin-4(1H)-one] | 361 | 42.67 ± 1.16 | 9.24 ± 0.18 | 5.19 ± 0.01 | 387 | 1.72 ± 0.08 | 1.88 ± 0.09 | 
7 | 337 | 15578 | COc1ccc2cc(C3=CC(=O)CCN3)ccc2c1 [Compound 15, 6-(6-methoxynaphthalen-2-yl)-2,3-dihydropyridin-4(1H)-one] | 368 | 7.41 ± 1.34 | 5.89 ± 0.99 | 2.65 ± 0.01 |  |  |  | 
8 | 333 | 13110 | COc1ccccc1C1=CC(=O)CCN1 [Compound 16, 6-(2-methoxyphenyl)-2,3-dihydropyridin-4(1H)-one] | 358 | 4.96 ± 0.18 | 5.94 ± 0.34 | 2.12 |  |  |  | 

Second part, the molecule before the results:

Row | Molecule | λmax exp [1] [nm] | ε (molar extinction coefficient at the λmax) [1] [L/mol/cm] | λc p.I [2] [nm] | Colipa UVA-PF p.I, at 10% [2] | SPF p.I, at 10% [2] | UVA/UVB [2] | λc (p.II) [3] [nm] | SPF (p.II, at 1%) [3] | Colipa UVA-PF (p.II, at 1%) [3] | Colipa UVA-PF p.I, at 10% ([2]; listed as oxybenzone)
9 | COc1cc(OC)cc(C2=CC(=O)CCN2C(=O)OC(C)(C)C)c1 [Compound 10, tert-butyl 6-(3,5-dimethoxyphenyl)-4-oxo-3,4-dihydropyridine-1(2H)-carboxylate] | 310 | 18622 | 334 | 1.88 ± 0.01 | 5.54 ± 0.66 | 0.49 ± 0.15 |  |  |  | 
10 | CC1CC(OC(=O)c2ccccc2O)CC(C)(C)C1 (stereo not shown) [Homosalate, reference compound] |  |  | 323 ± 1 | 1.08 ± 0.00 | 1.91 ± 0.04 | 0.17 ± 0.00 |  |  |  | 
11 | COc1ccc(C(=O)c2ccccc2)c(O)c1 [Oxybenzone, reference compound] |  |  | 349 ± 1 | 2.63 ± 0.01 | 5.27 ± 0.25 | 0.98 ± 0.00 |  |  |  | 2.63
12 | CC(C)(C)OC(=O)NC1=C(c2ccccc2)N(C(=O)OC(C)(C)C)CCC1=O [Compound 6, tert-butyl 5-(tert-butoxycarbonylamino)-4-oxo-6-phenyl-3,4-dihydropyridine-1(2H)-carboxylate] | 322 | 11206 | 351 | 1.56 ± 0.04 | 2.04 ± 0.09 | 1.24 ± 0.0 |  |  |  | 
13 | COc1ccc2cc(C3=CC(=O)CCN3C(=O)OC(C)(C)C)ccc2c1 [Compound 11, tert-butyl 6-(6-methoxynaphthalen-2-yl)-4-oxo-3,4-dihydropyridine-1(2H)-carboxylate] | 331 | 14280 | 362 | 4.70 ± 0.42 | 5.50 ± 0.62 | 1.92 ± 0.01 |  |  |  | 
14 | CN1C=C(NC(=O)OC(C)(C)C)C(=O)CC1 [Compound 18, tert-butyl 1-methyl-4-oxo-1,4,5,6-tetrahydropyridin-3-ylcarbamate] | 355 | 8618 | 368 | 3.49 ± 0.17 | 2.67 ± 0.08 | 3.05 ± 0.04 |  |  |  | 
15 | CCOC(=O)/C=C/C1=C(c2ccccc2)N[C@@H](COCc2ccccc2)CC1=O [Compound 9, (R,E)-ethyl 3-(6-(benzyloxymethyl)-4-oxo-2-phenyl-1,4,5,6-tetrahydropyridin-3-yl)acrylate] | 308 | 31339 | 353 | 3.54 | 5.40 ± 0.43 | 1.84 |  |  |  | 
16 | PEG-25 PABA [reference compound] |  |  | 324 ± 1 | 1.11 ± 0.01 | 2.04 ± 0.05 | 0.19 ± 0.01 |  |  |  | 
17 | CCOC(=O)/C=C/C1=C(c2ccccc2)N(C(=O)OC(C)(C)C)CCC1=O [Compound 7, (E)-tert-butyl 5-(3-ethoxy-3-oxoprop-1-enyl)-4-oxo-6-phenyl-3,4-dihydropyridine-1(2H)-carboxylate] | 343 | 15426 | 375 | 2.92 ± 0.17 | 1.61 ± 0.13 | 6.36 ± 1.16 |  |  |  | 
18 | CCCC1=C(/C=C/C(=O)OCC)C(=O)C[C@H](Cc2ccccc2)N1 [Compound 17, (S,E)-ethyl 3-(6-benzyl-4-oxo-2-propyl-1,4,5,6-tetrahydropyridin-3-yl)acrylate] | 316 | 20260 | 353 | 4.88 ± 0.11 | 13.28 ± 0.66 | 1.46 ± 0.01 |  |  |  | 
19 | CCCCC(CC)COC(=O)c1ccc(Nc2nc(Nc3ccc(C(=O)NC(C)(C)C)cc3)nc(Nc3ccc(C(=O)OCC(CC)CCCC)cc3)n2)cc1 (stereo not shown) [Diethylhexyl Butamido Triazone, reference compound] |  |  |  | 1.27 ± 0.01 | 10.10 ± 0.02 | 0.12 ± 0.01 |  |  |  | 
